# Experimental data taken from patent publication US12661329B2, “Methods of generating oligodendrocytes” (Hadasit Medical Research Services and Development Ltd., priority 2019, dated 2026).
# B1: noggin: BMP antagonist (protein, UniProt Q13253 28-232, looked up)
# Noggin: QHYLHIRPAPSDNLPLVDLIEHPDPIFDPKEKDLNETLLRSLLGGHYDPGFMATSPPEDRPGGGGGAAGGAEDLAELDQLLRQRPSGAMPSEIKGLEFSEGLAQGKKQRLSKKLRRKLQMWLWSQTFCPVLYAWNDLGSRFWPRYVKVGSCFSKRSCSVPEGMVCKPSKSVHLTVLRWRCQRRGGQRCGWIPIQYPIISECKCSC
# Experiments:
# [1] = test system: hESC-derived pre-OLs (MBP reporter cells); test: Maturation of MBP-Tomato reporter pre-OLs under normoxia or after 48 h hypoxia (in vitro white matter injury model); assay type: cell-based, human; conditions: for proportion of MBP+ Tomato+ mature oligodendrocytes: noggin 100 ng/ml, DAPT 1 μM; for proportion of MBP Tomato co-expressing oligodendrocytes: PD0325901 0.25 μM alone or combined, vs vehicle (FIG. 13)
# Method: (§1) Human ESCs (HES1 passages 21 to 42 with a normal karyotype) were cultured as described. hESC colonies were picked up by means of collagenase IV (1 mg/ml; GIBCO-BRL, Gaithersburg, MD) and placed into ultralow adherent culture dishes (Thermo Scientific Nunc HydroCell) to favor sphere aggregation. Spheres were cultured in NDM media consisting of Neural Differentiation Medium (Gibco) and N2B27 supplements with 20 ng/ml FGF-2. Spheres were first patterned with the dual-SMAD inhibitors LDN193189 (1 μM, Cayman Chemical, Ann Arbor, MI) and SB431542 (5 μM, SB; PeproTech Inc, Rocky Hill, NJ) until day 4 when SB431542 was withdrawn and the spheres were further cultured for additional 10 days in the presence LDN193189 and FGF-2. At day 14, the spheres were caudalized and ventralized using 0.1 μM all-trans retinoic acid and 0.5 μM purmorphamine, respectively (PeproTech Inc, Rocky Hill, NJ). At day 35, spheres were switched to modified SATO media, consisting of DMEM/F12, 10 ng/ml biotin, 60 ng/ml progesterone, 16 μg/ml putrescine, 20 μg/ml human insulin, 100 μg/ml apotransferrin, 5 ng/ml sodium selenite, 100 μg/ml bovine serum albumin (BSA), 60 μg/ml N-acetyl cysteine and 2 μg/ml forskolin. The medium was further supplemented with 20 ng/ml FGF-2, 0.5 μM Purmorphamine, 5 ng/ml NT3 and 200 nM ascorbic acid. Media was changed every 3 days for 6-7 weeks. For differentiation, spheres were dissected into small clusters mechanically and plated onto poly-D-lysine/laminin-coated plates and cultured in modified SATO media supplemented with 5 ng/ml NT3, 10 ng/ml IGF-1, 60 ng/ml T3, 100 ng/ml noggin and 200 nM ascorbic acid for 2-4 weeks.
# To block Notch signaling, the γ-secretase inhibitor, DAPT (N—[N-(3,5-difluorphenacetyl)-L-alanyl]-S-phenylglycine t-butyl ester), PeproTech Inc, Rocky Hill, NJ) was added freshly every other day to the cells to a concentration of 1 μM. To block MEK/ERK signaling, PD0325901 (PeproTech Inc, Rocky Hill, NJ) was added freshly every other day to the cells to a concentration of 0.25-0.5 μM.
# Immunocytochemistry: Cells were fixed in 4% paraformaldehyde for 20 min, washed with PBS, blocked in blocking solution (5% donkey serum, 0.2% Triton X-100 in PBS) for 1 hour, and incubated for 2 hours with primary antibodies mouse anti-Olig2 (Millipore Corporation diluted 1:150) and mouse anti-Nkx-2.2 (Developmental Studies Hybridoma Bank, diluted 1:100). After washing, cells were incubated with secondary antibody, donkey anti-mouse Alexa-488 (Life Technologies, Inc.), for 1 hour before being mounted in VECTASHIELD™ mounting medium. For O4 staining, cells were blocked in blocking solution (5% donkey serum in DMEM/F12) for 1 hour, and incubated with mouse-anti O4 antibody (R&D System, diluted 1:100) for 2 hours. After washing, cells were fixed in 4% paraformaldehyde for 20 min, and incubated with secondary antibody, donkey anti-mouse Alexa-488 or Alexa-555 (Life Technologies, Inc.), for 1 hour before being mounted in VECTASHIELD™ mounting medium. For MBP staining, after fixation cells were washed with PBS+0.01% saponin, blocked in blocking solution (5% goat serum, 0.01% saponin in DMEM/F12) for 1 hour, and incubated with rat anti-MBP antibody (R&D System 1:100) for 2 hours. After washing, cells were incubated with secondary antibody, goat anti-rat antibody (Jackson laboratories, 1:100) for 1 hour before being mounted in VECTASHIELD™ mounting medium.
# Plasmid construction and gene targeting: Oligonucleotide encoding the MBP-targeting sgRNA was custom ordered (hy.labs), hybridized and ligated into the BbsI restriction site of pX330-U6-Chimeric-BB-CBh-hSpCas9 vector (Addgene #42230). Homology arms from the human mbp locus were amplified from genomic DNA isolated from HES1 cells by nested PCR (5′ arm: Chr18:74692386-74693344, 3′ arm: Chr18:74691209-74692367). The PCR products was digested and ligated into PNTKV-2A-Tomato donor plasmid. Correct construction of each expression cassette was verified by sequence analysis. […]
# MEK-ERK signalling = conditions: mouse; earlier stage of differentiation of the oligodendroglial lineage; cited from earlier work
# hESC-derived pre-OL = test: Terminal maturation of hESC-derived pre-oligodendrocytes into MBP+ oligodendrocytes (MBP immunostaining); assay type: cell-based, human; conditions: pre-OL on laminin
# Method: as §1, with “2-4 weeks. […] To block MEK/ERK signaling, PD0325901 (PeproTech Inc, Rocky Hill, NJ) was added freshly every other day to the cells to a concentration of 0.25-0.5 μM. […]” for “2-4 weeks.”
# EAE mice = test: ICV delivery in chronic EAE, Biozzi mouse model of Multiple Sclerosis; assay type: in vivo, Biozzi ABH mice; conditions: ICV mini-osmotic pump, 5 μg per day, vs vehicle-treated EAE mice
# Excerpt: The Biozzi mouse model of Multiple Sclerosis: Biozzi ABH mice have genetic tendency to develop autoimmune diseases, and are used for many autoimmune models. The experimental autoimmune model in Biozzi mice is induced by immunization with spinal cord homogenate. Typically, mice develop an acute relapse, followed by remission, and after that a relapsing and progressive course of disease, resembling human multiple sclerosis (MS). […] In the chronic phase of EAE there are typical immunopathological features resembling progressive MS, such as meningeal infiltrates and development of tertiary lymphoid-like tissue, partial closing of the blood-brain-barrier, and reduction in lesion activity with increase in astrogliosis. Therefore, this model is considered one of the most clinical-relevant experimental models of MS. EAE was induced in Biozzi mice. Briefly, mice were inoculated subcutaneously at day 0 and day 7 in both hind flanks with 1 mg spinal cord homogenate emulsified in complete Freund's adjuvant supplemented with 3 μg M. Butyricum. Mice were monitored and scored daily in a blinded manner as follows: 0=normal, 1=limp tail, 2=impaired righting reflex, 3=hind-limb paresis; 4=complete hind-limb paralysis and 5=moribund/death. 10-14 days after the second relapse the mice were divided into two prospective experimental groups. […]
# [2] = test system: oligodendrocyte progenitors (OLPs) isolated from mouse cerebral cortex; conditions: cited from earlier work
# [3] = test system: oligodendroglial differentiation; conditions: cited from earlier work
# [4] = hypoxia 48 hours, then 3 weeks normoxia, vs vehicle
molecule,measurement,setting,value
"C[C@H](NC(=O)Cc1cc(F)cc(F)c1)C(=O)N[C@H](C(=O)OC(C)(C)C)c1ccccc1 [DAPT, N—[N-(3,5-difluorphenacetyl)-L-alanyl]-S-phenylglycine t-butyl ester]",proportion of MBP+ Tomato+ mature oligodendrocytes,[1]; [4],increased differentiation
same,proportion of MBP+ Tomato+ mature oligodendrocytes,"[1]; normoxia, 3 weeks, vs vehicle",did not increase
O=C(NOC[C@H](O)CO)c1ccc(F)c(F)c1Nc1ccc(I)cc1F [PD0325901],oligodendrocyte differentiation,MEK-ERK signalling,augment oligodendrocyte differentiation
same,culture period after which maturation was obtained,hESC-derived pre-OL,1 week
same,branching of processes of MBP+ cells,hESC-derived pre-OL; 1 week,enhanced branching
same,proportion of MBP mature oligodendrocytes / maturation into MBP+ cells,"hESC-derived pre-OL; DAPT+noggin 2 weeks, PD0325901 1 week, vs vehicle",highly significant augmentation
same,disease course: mean cumulative score of disease,EAE mice; 28 days from implantation,significantly milder
same,disease course: final clinical score at day of termination,EAE mice; 28 days,significantly milder
same,proportion of MBP Tomato co-expressing oligodendrocytes,"[1]; hypoxia exposed, one week following hypoxia",increased proportion
same,MBP+ Tomato+-expressing oligodendrocytes,"[1]; hypoxia-exposed cultures, 0.25 μM or 0.5 μM for one week",marked increase
same,branching of processes of MBP+ Tomato+ oligodendrocytes,"[1]; hypoxia-exposed cultures, one week",marked increase
same,number of MBP Tomato co-expressing oligodendrocytes,"[1]; hypoxia-exposed, 0.25 μM, one week following hypoxia, vs vehicle (FIG. 11)",increased number
same,number of MBP Tomato co-expressing oligodendrocytes,"[1]; hypoxia-exposed, 0.5 μM, one week following hypoxia, vs vehicle (FIG. 12)",increased number
same,proportion of MBP+ Tomato+ oligodendrocytes,"[1]; normoxia, 0.25 μM or 0.5 μM for one week, vs vehicle",significant increase
same,number of MBP Tomato co-expressing oligodendrocytes,"[1]; normoxia, 0.25 μM, one week, vs vehicle (FIG. 11)",increased number
same,number of MBP Tomato co-expressing oligodendrocytes,"[1]; normoxia, 0.5 μM, one week, vs vehicle (FIG. 12)",increased number
same,proportion of MBP Tomato co-expressing oligodendrocytes,"[1]; normoxia, one week",increased proportion
same,branching of the processes of MBP+ oligodendrocytes,"[1]; normoxia, one week",significantly enhanced
same,effect on pre-OLs maturation compared with noggin or DAPT,[1]; one week of treatment vs two-three weeks with noggin and/or DAPT,more prominent
Oc1nc(-c2ccc(C(F)(F)F)cc2)nc2c1CSCC2 [XAV939],differentiation of oligodendrocyte progenitors (OLPs),[2],promote differentiation
B1,oligodendroglial differentiation and maturation,[3],enhance oligodendroglial differentiation and maturation
same,proportion of MBP+ Tomato+ mature oligodendrocytes,[1]; [4],substantial increase
same,proportion of MBP+ Tomato+ mature oligodendrocytes,"[1]; normoxia, 3 weeks, vs vehicle",substantial increase
